From patent US20220305048A1, “USE OF HEPARIN TO PROMOTE TYPE 1 INTERFERON SIGNALING” (Dana-Farber Cancer Institute, Inc., priority 2019, published 2022)

Legend:
[1] = test system: BEN-MEN-1 meningioma cells; assay: CXCL10 ELISA of conditioned media, ADU S-100 dose and time course +/- heparin; format: cell-based; settings: 50 μg/mL and 100 μg/mL ADU-S100, heparin 10 μg/mL, 24 hours
Procedure: FIGS. 3A to 3B include plots showing that heparin dose-dependently enhances STING agonist effects across compounds. […] FIG. 3D includes a plot of showing the time course data for BenMen 1 cells with treatment for 3 and 6 days. The data reflects 24 hours treatment prior to collection of conditioned media for CXCL10 ELISA FIG. 3E includes plots showing RPPM mouse SCLC cells treated with 1 μg/mL 2,3-cGAMP and 1 μg/mL unfractionated heparin, low-molecular weight heparin (LMWH), heparin pentasaccharide fondaparinux, 6-desulfated heparin, chondroitin sulfate (CS)+/−the Janus kinase/signal transducers and activators of transcription (JAK/STAT) inhibitor ruxolitinib (ruxo 1 μg/mL) for 24 hours prior to CXCL10 ELISA. H69M human SCLC cells treated with 10 μg/mL 2,3-cGAMP+/−heparin 10 μg/mL or desulfated heparins 2-O desulfated (2DES), N-desulfated (NDES), and 6-O desulfated (6DES) 24 hours prior to CXCL10 ELISA. All panels reflect 24 hours treatment prior to collection of conditioned media for CXCL10 ELISA.
A 24-hour dose response study was also conducted on BEN-MEN-1 meningioma cells (hereafter “BenMen 1 cells”) and RPPM mouse SCLC cells. BenMen 1 cells were treated with various doses of ADU S-100 (0, 10, 20, 30, 50, and 100 μg/mL) either in the presence or absence of heparin (10 μg/mL). […]

[2] = test system: 631M/RPPM mouse SCLC cells; assay: CXCL10 ELISA of conditioned media, STING agonists +/- heparins; format: cell-based; settings: for interaction between heparin and STING agonist (CXCL10 ELISA): 24 hours, p<0.0001 by 2-WAY ANOVA (FIG. 3C); for interaction between heparin and STING agonist on the amount of CXCL10 in the media: +/- 1 μg/mL heparin, 1 or 10 μg/mL cGAMP, 50 μM ADU, 0.2 mg/ml CMA, 24 hours (FIG. 3A)
Procedure: (§1) 1 mL of conditioned media from each treatment plate was collected after 24 hr culture unless otherwise specified. The collected media was centrifuged at 1400 RPM for 3 minutes to remove any cellular debris before use in the ELISA. Values represent the average of at least two independent biological replicates.

[3] = test system: BenMen 1 cells; RPPM mouse SCLC and MS428 human mesothelioma cell lines; assay: STING pathway western blot and CXCL10 ELISA with TBK1 or JAK/STAT inhibitor; format: cell-based; settings: MRT TBK1 inhibitor 1 μM or 5 μM; ruxolitinib 1 μM
Procedure: FIG. 4A includes immunofluorescent images of fixed hLFB cells after 24 hours of treatment with cyanine-5 (Cy5) labeled 2,3-cGAMP 1 μg/mL+/−heparin 1 μg/mL. The staining represents actin phalloidin, DAPI (4′,6-diamidino-2-phenylindole), and Cy5-labeled cGAMP. FIG. 4B includes a western blot for STING pathway components in BEN-MEN-1 meningioma cells treated for 72 hours with 50 μM ADU+/−heparin 10 μg/mL and MRT TANK-binding kinase-1 (TBK1) inhibitor 5 μM. FIG. 4C includes plots showing CXCL10 ELISA after 24 hours treatment with 2,3-cGAMP (1 μg/mL) or ADU S-100 (50 μM unless otherwise indicated)+/−heparin (1 μg/mL in RPPM or 10 μg/mL in MS428), MRT TBK1 inhibitor 1 μM, or ruxolitinib JAK/STAT inhibitor (“ruxo”; ruxolitinib) 1 μM in RPPM mouse SCLC and MS428 human mesothelioma cell lines. FIG. 4D includes a plot showing the qPCR for Programmed death-ligand 1 (PD-L1) after 24 hours treatment 50 μM ADU+/−heparin 10 μg/mL and MRT TBK1 inhibitor in BEN-MEN-1 meningioma cells. ANOVA p<0.001 for all graphs. *p<0.05 ****p<0.0001 by Bonferroni corrected pairwise comparison.
The serine/threonine protein kinase, TBK1, is a critical regulator in innate immune signaling pathways that lead to the induction of type I interferon (IFN) and interferon-stimulated genes (ISGs). Dysregulation of TBK1 activity is often associated with autoimmune diseases and cancer. […]

[4] = test system: H196 SCLC and MS428 meningioma cells; assay: Luminex cytokine array; format: cell-based, human; settings: 5 μM MRT TBK1 inhibitor
Procedure: FIGS. 19A to 19B includes diagrams showing that heparin alters the release of multiple cytokines after STING agonist treatment. […] L2FC=LOG2 fold change.
The influence of heparin (with and without a STING agonist) on IL-6 and IL-8 levels was examined. […] This effect was reversed by MRT TBK1 inhibitor.
Multiplex assays were performed utilizing the Human Cytokine/Chemokine Maganetic Bead Panel (Cat. #HCYTMAG-60K-PX30) on a Luminex MAGPIX system (Merck Millipore). Conditioned media concentrations (pg/ml) for each cytokine were derived from parameter curve fitting models. Fold changes relative to the corresponding control were calculated and plotted as log 2FC.

[5] = test system: B16F10 mouse melanoma cells; Lewis Lung Carcinoma (LLC) mouse non-small-cell lung cancer cells; assay: CXCL10 ELISA of conditioned media, interferons +/- heparin; format: cell-based; settings: interferon 5 ng/mL +/- heparin 1 μg/mL, 24 hours
Procedure: as §1

[6] = test system: Human lung fibroblasts (hLFB); assay: CXCL10 qPCR, 2,3-cGAMP +/- heparin; format: cell-based; settings: 2,3-cGAMP 1 μg/mL, 24 hours
Procedure: FIG. 2 includes plots showing that heparin enhances STING agonist activity. FIG. 2A includes plots showing human lung fibroblasts (hLFB) and H69-mesenchymal (H69M) small cell lung cancer (SCLC) cells treated with 2,3-cGAMP 1 μg/mL+/−heparin 1 μg/mL for 24 hours prior to CXCL10 qPCR and collection of conditioned media for C—X—C motif chemokine 10 (CXCL10) ELISA (enzyme-linked immunosorbent assay). […] THP1=differentiated macrophages. hLFB=human lung fibroblasts. MEF=mouse embryonic fibroblasts. HUE=human umbilical endothelial cells. ANOVA p<0.001 for all figures. *p<0.05 ****p<0.0001 by Bonferroni corrected pairwise comparison.
Also, Human lung fibroblasts (hLFB) were treated with 2,3-cGAMP 1 μg/mL (hereafter referred to as “cGAMP)+/−heparin 1 μg/mL for 24 hours prior to CXCL10 qPCR and collection of conditioned media for CXCL10 ELISA (FIG. 2A).
RNA extraction was performed using the RNeasy Mini Kit (Qiagen, Cat. #74106). RNA samples (1000 ng) were reverse-transcribed into cDNA using Superscript® First-Strand Synthesis SuperMix (Thermo Fisher Scientific, Cat. #1683483). Quantitative real-time PCR was then performed using Power SYBR Green PCR Master Mix (Thermo Fisher Scientific, Cat. #4367659). The sequences of the primers used for qRT-PCR were obtained from previously published literature. Error bars represent technical replicates of each experiment.

Nc1ncnc2c1ncn2[C@@H]1O[C@@H]2CO[P@](=O)(S)O[C@@H]3C(O)[C@@H](CO[P@@](=O)(S)O[C@H]2[C@H]1O)O[C@H]3n1cnc2c(N)ncnc21 (stereo partly drawn) [ADU-S100]
STING activity (CXCL10 concentration) in the presence vs absence of heparin [1]: significantly higher STING activity
interaction between heparin and STING agonist (CXCL10 ELISA) [2]: significant interaction
interaction between heparin and STING agonist on the amount of CXCL10 in the media [2]: significant interaction

O=C(NCCCNc1nc(Nc2cccc(CN3CCOCC3)c2)ncc1C1CC1)C1CCC1 [MRT TBK1 inhibitor, MRT67307]
STING activity after addition of inhibitor to heparin and ADU [3]: reduced the STING activity
effect of heparin plus ADU on cytokines after TBK1 inhibitor [4]: reversed

IFNg: interferon gamma (R&D systems)
amount of CXCL10 in the media with heparin compared to interferon alone [5]: not seen

cyclic GMP-AMP [cGAMP]
interaction between heparin and STING agonist (CXCL10 ELISA) [2]: significant interaction
interaction between heparin and STING agonist on the amount of CXCL10 in the media [2]: significant interaction
STING activity (CXCL10 expression, qPCR), cGAMP in the absence of heparin [6]: negligible STING activity
